Measured values reported in patent publication US8969363B2, “Heterocyclic compounds and uses thereof” (Infinity Pharmaceuticals, Inc., priority 2011, dated 2015).
Like-named read-outs stand apart in the source and are kept apart here.

Experiments:
PI3Kβ = assay: PI3 Kinase HTRF assay, PI3Kβ; format: biochemical, human; details: 10 μM PIP2, 10 μM ATP; 'Greater than 10 μM' and 'Greater than 1 μM to 10 μM'; read-out: PI3K β IC50
How it was run: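 Recombinant PI3Kβ converting PIP2 (10 μM) to PIP3 with 10 μM ATP; PIP3 detected by competitive HTRF displacement of biotin-PIP3/GST-GRP1 PH domain complex. Emission ratios converted to % inhibition; IC50 by nonlinear regression.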

PI3Kδ = target: T1, PI3Kδ (Homo sapiens, UniProt O00329); assay: PI3 Kinase HTRF assay, PI3Kδ; format: biochemical; details: 10 μM PIP2, 10 μM ATP, read-out: PI3K δ IC50
T1 construct: purchased Millipore Corporation 14-604-K
T1 sequence (O00329 whole entry): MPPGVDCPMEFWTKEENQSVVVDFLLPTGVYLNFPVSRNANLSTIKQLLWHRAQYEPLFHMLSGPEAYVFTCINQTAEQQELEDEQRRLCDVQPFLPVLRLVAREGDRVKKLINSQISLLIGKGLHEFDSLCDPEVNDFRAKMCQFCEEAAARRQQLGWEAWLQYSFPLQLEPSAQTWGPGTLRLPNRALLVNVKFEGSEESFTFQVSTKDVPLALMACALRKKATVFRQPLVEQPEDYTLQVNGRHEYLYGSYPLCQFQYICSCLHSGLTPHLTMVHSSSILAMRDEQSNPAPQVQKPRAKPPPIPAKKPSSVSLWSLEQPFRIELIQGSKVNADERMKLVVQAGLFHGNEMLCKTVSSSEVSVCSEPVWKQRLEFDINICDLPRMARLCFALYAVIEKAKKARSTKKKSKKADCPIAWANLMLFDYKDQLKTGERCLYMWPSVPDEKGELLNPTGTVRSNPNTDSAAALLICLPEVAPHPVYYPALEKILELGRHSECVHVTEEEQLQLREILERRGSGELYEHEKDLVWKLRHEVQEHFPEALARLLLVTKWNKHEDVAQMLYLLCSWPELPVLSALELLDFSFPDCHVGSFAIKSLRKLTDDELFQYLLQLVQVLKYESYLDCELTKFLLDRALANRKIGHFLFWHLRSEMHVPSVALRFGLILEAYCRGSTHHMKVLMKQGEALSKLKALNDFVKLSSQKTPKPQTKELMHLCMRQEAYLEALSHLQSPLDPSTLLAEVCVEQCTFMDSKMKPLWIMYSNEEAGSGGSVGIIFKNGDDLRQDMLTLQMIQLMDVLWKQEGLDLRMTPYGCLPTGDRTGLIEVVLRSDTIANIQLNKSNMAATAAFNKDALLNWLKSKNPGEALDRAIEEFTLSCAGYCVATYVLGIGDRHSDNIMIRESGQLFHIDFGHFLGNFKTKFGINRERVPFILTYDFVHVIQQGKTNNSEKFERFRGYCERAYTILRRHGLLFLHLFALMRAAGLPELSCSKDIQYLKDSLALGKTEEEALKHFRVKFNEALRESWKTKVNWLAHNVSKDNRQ
T1 sequence (P27986 whole entry partner): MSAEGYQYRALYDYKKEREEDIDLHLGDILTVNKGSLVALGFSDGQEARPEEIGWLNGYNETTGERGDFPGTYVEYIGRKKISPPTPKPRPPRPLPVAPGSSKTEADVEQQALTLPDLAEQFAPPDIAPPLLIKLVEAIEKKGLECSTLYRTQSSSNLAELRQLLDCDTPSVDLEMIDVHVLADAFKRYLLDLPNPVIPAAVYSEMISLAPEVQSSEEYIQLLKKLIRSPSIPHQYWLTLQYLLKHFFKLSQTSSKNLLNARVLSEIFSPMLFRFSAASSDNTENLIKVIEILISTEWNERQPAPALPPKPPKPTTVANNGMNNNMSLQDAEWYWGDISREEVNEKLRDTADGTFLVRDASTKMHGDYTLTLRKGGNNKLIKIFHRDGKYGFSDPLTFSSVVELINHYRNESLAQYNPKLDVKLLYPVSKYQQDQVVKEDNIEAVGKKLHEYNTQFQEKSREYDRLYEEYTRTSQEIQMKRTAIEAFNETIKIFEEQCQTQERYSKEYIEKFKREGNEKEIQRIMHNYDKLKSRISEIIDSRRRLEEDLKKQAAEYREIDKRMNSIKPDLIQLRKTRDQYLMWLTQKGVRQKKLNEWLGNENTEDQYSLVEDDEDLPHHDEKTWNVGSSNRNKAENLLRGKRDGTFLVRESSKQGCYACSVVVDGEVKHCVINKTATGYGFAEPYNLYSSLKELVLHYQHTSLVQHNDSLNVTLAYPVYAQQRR
Description: (§1) A PI3-Kinase HTRF® assay kit (cat No. 33-016) purchased from Millipore Corporation was used to screen compounds provided herein. This assay used specific, high affinity binding of the GRP1 pleckstrin homology (PH) domain to PIP3, the product of a Class 1A or 1B PI3 Kinase acting on its physiological substrate PIP2. During the detection phase of the assay, a complex was generated between the GST-tagged PH domain and biotinylated short chain PIP3. The biotinylated PIP3 and the GST-tagged PH domain recruited fluorophores (Streptavidin-Allophycocyanin and Europium-labeled anti-GST respectively) to form the fluorescence resonance energy transfer (FRET) architecture, generating a stable time-resolved FRET signal. The FRET complex was disrupted in a competitive manner by non-biotinylated PIP3, a product formed in the PI3 Kinase assay.
(§2) PI3 Kinase α, β, γ and δ activity was assayed using the PI3 Kinase HTRF® assay kit (catalogue No. 33-016) purchased from Millipore Corporation. Purified recombinant PI3Kα (catalogue No. 14-602-K), PI3Kβ (catalogue No. 14-603-K), PI3Kγ (catalogue No. 14-558-K) and PI3Kδ (catalogue No. 14-604-K) were obtained from Millipore Corporation. Purified recombinant PI3K enzyme was used to catalyze the phosphorylation of phosphatidylinositol 4,5-bisphosphate (PIP2 at 10 μM) to phosphatidylinositol 3,4,5-trisphosphate (PIP3) in the presence of 10 μM ATP. The assay was carried out in 384-well format and detected using a Perkin Elmer EnVision Xcite Multilabel Reader. Emission ratios were converted into percent inhibitions and imported into GraphPad Prism software. The concentration necessary to achieve inhibition of enzyme activity by 50% (IC50) was calculated using concentrations ranging from 20 μM to 0.1 nM (12-point curve). IC50 values were determined using a nonlinear regression model available in GraphPad Prism 5. […]

PI3Kγ = target: T2, PI3Kγ (Homo sapiens, UniProt P48736); assay: PI3 Kinase HTRF assay, PI3Kγ; format: biochemical; details: 10 μM PIP2, 10 μM ATP; 'Greater than 10 μM' and 'Greater than 1 μM to 10 μM'; read-out: PI3K γ IC50
T2 construct: purchased Millipore Corporation 14-558-K
T2 sequence (P48736 whole entry): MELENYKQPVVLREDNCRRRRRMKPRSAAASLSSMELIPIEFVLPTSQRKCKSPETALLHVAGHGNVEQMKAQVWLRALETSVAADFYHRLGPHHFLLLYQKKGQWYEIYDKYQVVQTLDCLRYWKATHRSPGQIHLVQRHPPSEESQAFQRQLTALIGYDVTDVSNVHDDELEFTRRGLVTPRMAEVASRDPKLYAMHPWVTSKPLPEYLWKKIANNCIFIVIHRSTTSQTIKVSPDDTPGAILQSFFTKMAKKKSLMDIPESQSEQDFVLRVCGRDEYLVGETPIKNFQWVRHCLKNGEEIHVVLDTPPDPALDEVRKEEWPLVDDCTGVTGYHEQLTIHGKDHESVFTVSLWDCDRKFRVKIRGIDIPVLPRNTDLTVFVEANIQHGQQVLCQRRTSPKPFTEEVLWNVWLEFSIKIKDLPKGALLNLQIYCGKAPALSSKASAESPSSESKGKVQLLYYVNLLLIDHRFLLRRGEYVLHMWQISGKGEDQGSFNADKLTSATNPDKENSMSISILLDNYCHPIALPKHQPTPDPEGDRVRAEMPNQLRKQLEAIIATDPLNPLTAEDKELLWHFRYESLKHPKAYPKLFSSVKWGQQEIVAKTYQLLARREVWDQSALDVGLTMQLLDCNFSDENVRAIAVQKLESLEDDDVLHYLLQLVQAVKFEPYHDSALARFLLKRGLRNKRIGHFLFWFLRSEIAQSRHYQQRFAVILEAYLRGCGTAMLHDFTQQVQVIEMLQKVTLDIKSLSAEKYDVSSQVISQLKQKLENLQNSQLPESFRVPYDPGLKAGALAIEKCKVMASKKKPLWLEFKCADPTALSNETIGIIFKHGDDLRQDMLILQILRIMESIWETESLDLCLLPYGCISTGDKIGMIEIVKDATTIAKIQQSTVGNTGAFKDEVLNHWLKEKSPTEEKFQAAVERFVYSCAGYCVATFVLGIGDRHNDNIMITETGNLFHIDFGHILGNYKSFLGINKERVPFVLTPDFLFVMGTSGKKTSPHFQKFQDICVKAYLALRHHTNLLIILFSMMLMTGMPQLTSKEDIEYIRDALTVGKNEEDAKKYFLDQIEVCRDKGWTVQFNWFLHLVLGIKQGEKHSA
Description: as §1, §2

Balb/c splenic B cells = assay: B cell activation and proliferation assay (Alamar Blue); format: cell-based; details: Mus musculus
How it was run: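 Balb/c splenic B cells (Ficoll, then MACS purification; 50,000/well) were preincubated 30 min with compound at 0.2% final DMSO. They were then stimulated 72 h at 37 °C with a cocktail of 10 μg/ml LPS, or 5 μg/ml anti-mouse F(ab′)2 plus 2 ng/ml mouse IL4. Alamar Blue was read after 5 h at 560Ex/590Em, giving IC50 or EC50.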

PI3Kα = target: T3, PI3Kα (Homo sapiens, UniProt P42336); assay: PI3 Kinase HTRF assay, PI3Kα; format: biochemical; details: 10 μM PIP2, 10 μM ATP; 'Greater than 10 μM' and 'Greater than 1 μM to 10 μM'; read-out: PI3K α IC50
T3 construct: purchased Millipore Corporation 14-602-K
T3 sequence (P42336 whole entry): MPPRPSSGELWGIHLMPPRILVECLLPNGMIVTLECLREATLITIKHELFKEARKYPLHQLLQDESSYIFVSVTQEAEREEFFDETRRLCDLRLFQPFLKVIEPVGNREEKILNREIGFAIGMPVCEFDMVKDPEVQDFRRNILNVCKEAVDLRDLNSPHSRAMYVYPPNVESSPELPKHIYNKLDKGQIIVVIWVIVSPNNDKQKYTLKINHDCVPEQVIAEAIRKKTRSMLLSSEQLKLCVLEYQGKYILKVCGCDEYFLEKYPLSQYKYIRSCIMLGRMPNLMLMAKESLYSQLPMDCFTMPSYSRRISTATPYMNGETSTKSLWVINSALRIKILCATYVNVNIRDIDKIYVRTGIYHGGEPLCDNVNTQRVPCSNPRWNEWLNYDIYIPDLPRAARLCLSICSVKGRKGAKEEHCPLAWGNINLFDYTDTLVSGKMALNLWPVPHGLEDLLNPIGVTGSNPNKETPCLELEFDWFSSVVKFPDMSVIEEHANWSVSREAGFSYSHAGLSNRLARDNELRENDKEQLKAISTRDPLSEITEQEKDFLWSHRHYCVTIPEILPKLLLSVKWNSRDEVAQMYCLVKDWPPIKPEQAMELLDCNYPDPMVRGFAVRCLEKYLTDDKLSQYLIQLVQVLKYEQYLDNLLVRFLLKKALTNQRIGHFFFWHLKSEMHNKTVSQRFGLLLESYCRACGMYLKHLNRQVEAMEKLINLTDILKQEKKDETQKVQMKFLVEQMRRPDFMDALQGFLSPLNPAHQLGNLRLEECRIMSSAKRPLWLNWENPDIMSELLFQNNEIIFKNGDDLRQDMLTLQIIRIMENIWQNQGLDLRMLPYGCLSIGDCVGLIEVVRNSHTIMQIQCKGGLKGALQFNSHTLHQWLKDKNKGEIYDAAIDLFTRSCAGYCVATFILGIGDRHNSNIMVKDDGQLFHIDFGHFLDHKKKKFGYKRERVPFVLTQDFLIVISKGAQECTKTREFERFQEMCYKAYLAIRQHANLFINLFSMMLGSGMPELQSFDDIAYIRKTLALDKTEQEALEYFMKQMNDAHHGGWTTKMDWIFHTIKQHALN
T3 sequence (P27986 whole entry partner): as the sequence (P27986 whole entry partner) above
Description: as §1, §2

[1] = system: phospho-AKT in RAJI cells (PI3Kδ); assay: PI3Kδ selective cellular assay: phospho-AKT in anti-human IgM stimulated RAJI cells; format: cell-based; details: read-out: IC50 for phospho-AKT, RAJI cell model
Description: A compound's ability in selectively inhibiting PI3Kδ can be assessed using RAJI cells, i.e., B lymphocyte cells derived from lymphoma patients. Briefly, serum-starved RAJI cells are stimulated with anti-human IgM, thereby causing signaling through the B-cell receptors, as described in, for example, He et al., Leukemia Research (2009) 33: 798-802. B-cell receptor signaling is important for the activation, differentiation, and survival of B cells and certain B-cell derived cancers. Reduction of phospho-AKT is indicative of compounds that may inhibit B-cell proliferation and function in certain diseases. By monitoring the reduction of phospho-AKT in stimulated RAJI cells (using for example, phospho-AKT antibodies), a compound's potential efficacy in selectively inhibiting PI3Kδ can be assessed.
Certain compounds provided herein (e.g., Compounds I-21, I-86, I-87, I-91, I-106, and III-13) were tested in RAJI cell model using procedures as described above.

[2] = system: phospho-AKT in RAW 264.7 cells (PI3Kγ); assay: PI3Kγ selective cellular assay: phospho-AKT in C5a stimulated RAW 264.7 cells; format: cell-based; details: Mus musculus, RAW264.7, range with units in value, read-out: IC50 for phospho-AKT, RAW 264.7 cell model
Description: A compound's ability in selectively inhibiting PI3Kγ can be assessed using RAW264.7 macrophages. Briefly, serum-starved PAW264.7 cells are stimulated with a known GPCR agonist C5a. (See, e.g., Camps et al., Nature Medicine (2005) 11(9): 936-943). Cells can be treated with test compounds prior to, simultaneously with, or subsequent to the stimulation by C5a. RAW 264.7 cells respond to the complement component fragment C5a through activation of the C5a receptor, and the C5a receptor activates macrophages and induces cell migration. Test compounds' ability to inhibit C5a-mediated AKT phosphorylation is indicative of selective inhibition of PI3Kγ. Thus, by monitoring the reduction of phospho-AKT in stimulated RAW 264.7 cells (using for example, phospho-AKT antibodies), a compound's potential efficacy in selectively inhibiting PI3Kγ can be assessed.
Certain compounds provided herein (e.g., Compounds I-21, I-86, I-87, I-91, I-106, and III-13) were tested in RAW 264.7 cell model using procedures as described above.

[3] = 'Greater than 10 μM' and 'Greater than 1 μM to 10 μM'
[4] = column 'Greater than 1 μM to 10 μM'

Chain of PI3Kβ (Q8BTI9 whole entry, the tested form may be a part): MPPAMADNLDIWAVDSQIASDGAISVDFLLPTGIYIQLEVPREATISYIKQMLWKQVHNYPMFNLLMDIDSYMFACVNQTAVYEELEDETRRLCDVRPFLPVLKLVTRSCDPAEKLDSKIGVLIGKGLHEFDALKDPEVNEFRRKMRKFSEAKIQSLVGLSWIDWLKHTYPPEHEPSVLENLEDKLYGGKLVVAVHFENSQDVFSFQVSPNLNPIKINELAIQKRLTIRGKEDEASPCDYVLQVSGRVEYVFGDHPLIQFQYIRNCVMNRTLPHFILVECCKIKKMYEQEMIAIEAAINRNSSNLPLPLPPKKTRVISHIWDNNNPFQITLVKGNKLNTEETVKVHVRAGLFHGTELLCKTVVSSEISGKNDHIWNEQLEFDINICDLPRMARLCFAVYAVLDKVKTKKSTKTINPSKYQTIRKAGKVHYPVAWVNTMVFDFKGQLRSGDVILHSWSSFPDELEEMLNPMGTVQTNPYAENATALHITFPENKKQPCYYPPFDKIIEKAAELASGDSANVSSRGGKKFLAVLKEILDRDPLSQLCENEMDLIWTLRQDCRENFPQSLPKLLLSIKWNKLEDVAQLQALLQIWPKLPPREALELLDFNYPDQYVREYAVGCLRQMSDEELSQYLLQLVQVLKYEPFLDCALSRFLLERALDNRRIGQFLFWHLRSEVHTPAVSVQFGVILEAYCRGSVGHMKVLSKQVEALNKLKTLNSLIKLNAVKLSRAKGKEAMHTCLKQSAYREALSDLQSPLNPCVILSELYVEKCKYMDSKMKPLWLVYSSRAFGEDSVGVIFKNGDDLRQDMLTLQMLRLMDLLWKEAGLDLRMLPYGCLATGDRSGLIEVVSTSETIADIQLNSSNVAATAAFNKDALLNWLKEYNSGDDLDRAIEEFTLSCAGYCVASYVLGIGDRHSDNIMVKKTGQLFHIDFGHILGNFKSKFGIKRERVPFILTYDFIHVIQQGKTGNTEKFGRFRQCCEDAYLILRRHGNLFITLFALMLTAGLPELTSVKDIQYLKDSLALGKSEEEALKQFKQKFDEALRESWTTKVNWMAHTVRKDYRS

SMILES | IC50 (PI3Kβ) [µM] | IC50 (PI3Kδ; [3]) [µM] | IC50 (PI3Kγ) [µM] | also measured
C[C@H](Nc1ccnn2ccnc12)c1cc2cccc(Cl)c2c(=O)n1CCN1CCCC1 [II-29] | 1 to 10 | 1 to 10 | – | –
C[C@H](Nc1cc(Cl)nn2ccnc12)c1cc2cccc(-c3cnn(C)c3)c2c(=O)n1C1CC1 [II-13] | > 10 | 1 to 10 | 1 to 10 | –
C[C@H](Nc1nc(Cl)nc2cccnc12)c1cc2cccc(Cl)c2c(=O)n1-c1ccccc1 [Compound I-52] | > 10 | 1 to 10 | – | EC50 (Balb/c splenic B cells; 1 μM to 100 nM): 0.1 to 1 µM
C[C@H](Nc1ncnn2cncc12)c1cc2cccc(Cl)c2c(=O)n1-c1cccc(F)c1 [IV-14] | > 10 | 1 to 10 | – | –
C[C@H](Nc1cc(O)nc2cccnc12)c1cc2cccc(Cl)c2c(=O)n1-c1ccccc1 [Compound I-100] | > 10 | 1 to 10 | 1 to 10 | EC50 (Balb/c splenic B cells; [4]): 1 to 10 µM
C[C@H](Nc1nc(Cl)nc2nccnc12)c1cc2cccc(Cl)c2c(=O)n1-c1ccccc1 [IV-20] | > 10 | 1 to 10 | 1 to 10 | –
COc1ncc(-c2cccc3cc([C@H](C)Nc4cc(O)nc5cccnc45)n(-c4ccccc4)c(=O)c23)cn1 [Compound I-99] | > 10 | 1 to 10 | – | EC50 (Balb/c splenic B cells; [4]): 1 to 10 µM
Cc1cn2nccc(N[C@@H](C)c3cc4cccc(Cl)c4c(=O)n3-c3cccc(F)c3)c2n1 [II-31] | > 10 | 1 to 10 | 1 to 10 | –
C[C@H](Nc1nc(N)nc2cccnc12)c1cc2cccc(N(C)C)c2c(=O)n1-c1ccccc1 [Compound I-102] | > 10 | 1 to 10 | – | –
CC(C)n1c([C@H](C)Nc2ncnc3cccnc23)cc2cccc(-c3ccc(=O)n(C)c3)c2c1=O [Compound I-106] | 1 to 10 | – | 1 to 10 | IC50 (PI3Kα): 1 to 10 µM; IC50 [1]: < 0.1 µM; IC50 [2]: 0.1 to 1 µM
Cc1cn2nccc(N[C@@H](C)c3cc4cccc(-c5cnn(C)c5)c4c(=O)n3-c3ccccc3)c2n1 [II-33] | > 10 | 1 to 10 | 1 to 10 | –
C[C@H](Nc1nc(Cl)nc2cccnc12)c1cc2cccc(C(F)(F)F)c2c(=O)n1-c1ccccc1 [III-22] | > 10 | 1 to 10 | – | –
C[C@H](Nc1ccnc2ccnn12)c1cc2cccc(Cl)c2c(=O)n1CCN1CCCC1 [II-28] | 1 to 10 | 1 to 10 | – | –
C[C@H](Nc1ncnc2cccnc12)c1cc2scc(-c3cnn(C)c3)c2c(=O)n1-c1ccccc1 [Compound I-30] | > 10 | 1 to 10 | – | –
C[C@H](Nc1ncnc2cccnc12)c1cc2c(F)ccc(Cl)c2c(=O)n1-c1ccccc1 [Compound I-14] | – | – | – | EC50 (Balb/c splenic B cells; 'Less than 100 nM'): < 0.1 µM; IC50 (PI3Kδ; 'Less than 100 nM'): < 0.1 µM
C[C@H](Nc1nc(Cl)nc2nc(Cl)cnc12)c1cc2cccc(Cl)c2c(=O)n1-c1ccccc1 [IV-19] | > 10 | 1 to 10 | – | –
C[C@H](Nc1ncnn2cncc12)c1cc2cccc(C(F)(F)F)c2c(=O)n1-c1ccccc1 [III-28] | > 10 | 1 to 10 | – | –
C[C@H](Nc1ncnc2cccnc12)c1cc2cccc(-c3cnn(C)c3)c2c(=O)n1C [Compound I-46] | > 10 | 1 to 10 | 1 to 10 | –
C[C@H](NCc1cnc2cccnn12)c1cc2cccc(Cl)c2c(=O)n1-c1ccccc1 [IV-9, (S)-8-chloro-3-(1-(imidazo[1,2-b]pyridazin-3-ylmethylamino)ethyl)-2-phenylisoquinolin-1(2H)-one] | > 10 | 1 to 10 | – | –
Cc1cn2nccc(N[C@@H](C)c3cc4cccc(Cl)c4c(=O)n3-c3ccccc3)c2n1 [II-32] | > 10 | 1 to 10 | 1 to 10 | –
C[C@@H](Nc1ncnc2cc(F)ccc12)c1cc2cccc(Cl)c2c(=O)n1-c1ccccc1 [IV-1] | > 10 | > 10 | > 10 | IC50 (PI3Kα): > 10 µM
Cc1ccnc2cc(C(C)Nc3ncnc4cccnc34)[nH]c(=O)c12 (centres unmarked) [Compound I-68, 4-methyl-7-(1-(pyrido[3,2-d]pyrimidin-4-ylamino)ethyl)-1,6-naphthyridin-5(6H)-one] | > 10 | 1 to 10 | – | –
C[C@H](Nc1ncc2[nH]cnc2n1)c1cc2cccc(Cl)c2c(=O)n1-c1ccccc1 [IV-7] | > 10 | 1 to 10 | – | –
C[C@@H](Nc1ncnc2cc(F)c(F)cc12)c1cc2cccc(Cl)c2c(=O)n1-c1ccccc1 [IV-3] | > 10 | > 10 | > 10 | IC50 (PI3Kα): > 10 µM
